Like-named read-outs stand apart in the source and are kept apart here.
Legend:
Type in all cases: cell-based
[1] = system: S pyogenes (stpy); assay: Example 3: colony color on chromogenic TSA II with 5% sheep blood (chromogen in medium); conditions: for Colony Color: 21 h
[2] = system: S. milleri (stmi); assay: as above; conditions: for Colony Color: stmi 6249, 21 h
[3] = system: Klebsiella pneumoniae (klpn); assay: as above
[4] = system: Entercoccus faecalis (enfa); assay: as above
[5] = system: Streptococcus agalactiae (stag); assay: as above
[6] = system: milu 9341; assay: as above; conditions: CO2, 21 h
[7] = system: E. faecium (enfu); assay: as above; conditions: for Colony Color: enfu 49032, 21 h
[8] = system: cakr 34135; assay: as above; conditions: CO2, 21 h
[9] = system: E. coli (non-O157) (esco)
[10] = system: S. pneumoniae (stpn); assay: Example 3: colony color on chromogenic TSA II with 5% sheep blood (chromogen in medium)
[11] = system: Candida albicans (caal); assay: as above; conditions: for Colony Color: caal 10231, 24 h
[12] = system: Branhamella catarrhalis (brca); assay: as above; conditions: for Colony Color: CO2, 21 h
[13] = system: Staphylococcus aureus (stau); assay: as above
[14] = system: Salmonella spp. (sasp); conditions: for Colony Color: CO2, 21 h
[15] = system: Aeromonas hydrophilia (aehy); assay: Example 3: colony color on chromogenic TSA II with 5% sheep blood (chromogen in medium); conditions: for Colony Color: CO2, 21 h
[16] = system: 55 strains; assay: Example 3: color, hemolytic activity and growth over all 55 strains; conditions: chromogenic TSA II
Source text: Steers, E. et al., Antibiot.

[17] = system: Pseudomonas aeruginosa (psae); assay: Example 3: colony color on chromogenic TSA II with 5% sheep blood (chromogen in medium); conditions: for Colony Color: CO2, 21 h
[18] = system: Serratia marcescens (sema); assay: as above
[19] = system: Staphylococcus Coag Neg (step); assay: as above; conditions: for Colony Color: 21 h
[20] = system: Citrobacter freundii (cifr); assay: as above; conditions: for Colony Color: CO2, 21 h
[21] = chromogenic TSA II with 5% Sheep Blood, 0.1 g/l, 6 strains tested
[22] = chromogenic TSA II with 5% Sheep Blood, 0.1 g/l, 2 strains tested
[23] = chromogenic TSA II with 5% Sheep Blood, 0.1 g/l, 3 strains tested
[24] = chromogenic TSA II with 5% Sheep Blood, 0.1 g/l, 1 strain tested
[25] = chromogenic TSA II with 5% Sheep Blood, 0.1 g/l, 5 strains tested

Magenta-caprylate [M-Cap]
Colony Color (Summary) [1, 21]: 0 | Colony Color ([1]; stpy 1027, CO2): 0 | Colony Color ([1]; stpy 1028, CO2): 0 | Colony Color ([1]; stpy 1029, CO2): 0 | Colony Color ([1]; stpy 1030, CO2): 0 | Colony Color ([1]; stpy 19615, CO2): 0 | Colony Color ([1]; stpy 19615, air): 0 | Colony Color ([1]; stpy 49117, CO2): 0 | Colony Color ([1]; stpy 49117, air): 0 | Colony Color ([1]; stpy 51339, CO2): 0 | Colony Color ([1]; stpy 51339, air): 0 | Colony Color (Summary) [2, 22]: 0 | Colony Color ([2]; CO2): 0 | Colony Color ([2]; air): 0 | Colony Color (Summary) [3, 23]: 0 | Colony Color ([3]; klpn 13883, CO2, 21 h): 0 | Colony Color ([3]; klpn 33495, CO2, 24 h): 0 | Colony Color ([3]; klpn 33495, air, 24 h): 0 | Colony Color ([3]; klpn 33606, CO2, 21 h): 0 | Colony Color (Summary) [4, 21]: 0 | Colony Color ([4]; enfa 597, CO2, 21 h): 0 | Colony Color ([4]; enfa 597, air, 21 h): 0 | Colony Color ([4]; enfa 10741, CO2, 21 h): 0 | Colony Color ([4]; enfa 10741, air, 21 h): 0 | Colony Color ([4]; enfa 12953, CO2, 21 h): 0 | Colony Color ([4]; enfa 12953, air, 21 h): 0 | Colony Color ([4]; enfa 14506, CO2, 21 h): 0 | Colony Color ([4]; enfa 14506, air, 21 h): 0 | Colony Color ([4]; enfa 29212, CO2, 21 h): 0 | Colony Color ([4]; enfa 29212, CO2, 24 h): 0 | Colony Color ([4]; enfa 29212, air, 21 h): 0 | Colony Color ([4]; enfa 29212, air, 24 h): 0 | Colony Color (Summary) [5, 23]: 0 | Colony Color ([5]; stag 4768, CO2, 21 h): 0 | Colony Color ([5]; stag 4768, air, 21 h): 0 | Colony Color ([5]; stag 12386, CO2, 21 h): 0 | Colony Color ([5]; stag 12386, CO2, 24 h): 0 | Colony Color ([5]; stag 12386, air, 24 h): 0 | Colony Color [6]: 0 | Colony Color (Summary) [7, 24]: 0 | Colony Color ([7]; CO2): 0 | Colony Color ([7]; air): 0 | Colony Color [8]: 0 | Colony Color (Summary) [9, 23]: 0 | Colony Color ([9]; esco 11775, CO2, 21 h): 0 | Colony Color ([9]; esco 25922, CO2, 24 h): 0 | Colony Color ([9]; esco 25922, air, 24 h): 0 | Colony Color ([9]; esco 33605, CO2, 21 h): 0 | Colony Color (Summary) [10, 21]: 0 | Colony Color ([10]; stpn 1259, CO2, 21 h): 0 | Colony Color ([10]; stpn 1260, CO2, 21 h): 0 | Colony Color ([10]; stpn 1331, CO2, 21 h): 0 | Colony Color ([10]; stpn 1628, CO2, 21 h): 0 | Colony Color ([10]; stpn 6303, CO2, 24 h): 0 | Colony Color ([10]; stpn 6303, air, 24 h): 0 | Colony Color ([10]; stpn 6305, CO2, 24 h): 0 | Colony Color ([10]; stpn 6305, air, 24 h): 0 | Colony Color ([11]; CO2): 0 | Colony Color ([11]; air): 0 | Colony Color (Summary) [11, 22]: 0 | Colony Color ([12]; brca 25238): 0 | Colony Color ([12]; brca 25240): 0 | Colony Color (Summary) [12, 22]: 0 | Colony Color (Summary) [13, 25]: 0 | Colony Color ([13]; stau 1006, CO2, 21 h): 0 | Colony Color ([13]; stau 1007, CO2, 21 h): 0 | Colony Color ([13]; stau 1008, CO2, 21 h): 0 | Colony Color ([13]; stau 1009, CO2, 21 h): 0 | Colony Color ([13]; stau 25923, CO2, 24 h): 0 | Colony Color ([13]; stau 25923, air, 24 h): 0 | Colony Color (Summary) [14, 22]: 0 | Colony Color ([14]; saty 19430): 0 | Colony Color ([14]; satym 14028): 0 | Colony Color ([15]; aehy 7965): 0 | Colony Color ([15]; aehy 7966): 0 | Colony Color ([15]; aehy 49847): 0 | Colony Color (Summary) [15, 23]: 0 | Activity (color) for most organisms [16]: inactive | Colony Color (Summary) [17, 23]: 0 | Colony Color ([17]; psae 9027): 0 | Colony Color ([17]; psae 15442): 0 | Colony Color ([17]; psae 33607): 0 | Colony Color (Summary) [18, 24]: 0 | Colony Color ([18]; sema 13880, CO2, 21 h): 0 | Colony Color (Summary) [19, 25]: 0 | Colony Color ([19]; step 12228, CO2): 0 | Colony Color ([19]; step 12228, air): 0 | Colony Color ([19]; step cdc1, CO2): 0 | Colony Color ([19]; step cdc1, air): 0 | Colony Color ([19]; step cdc2, CO2): 0 | Colony Color ([19]; step cdc2, air): 0 | Colony Color ([19]; step cdc3, CO2): 0 | Colony Color ([19]; step cdc3, air): 0 | Colony Color ([19]; step cdc4, CO2): 0 | Colony Color ([19]; step cdc4, air): 0 | Colony Color (Summary) [20, 22]: 0 | Colony Color ([20]; cifr 8454): 0 | Colony Color ([20]; cifr 33128): 0
